Laboratory results: publication PMC4180279 (Biochemistry, 2014)
No end group written: not given here.

How the values were obtained:
[1] = Solubility / aggregation observed in ITC experiments; assay type: physicochemical; conditions: limits use of peptide as titrant in ITC; 50 mM Tris (pH 7.5), 50 mM NaCl, 5 mM CaCl2
Experimental: (§1) ITC experiments were performed using a MicroCal ITC200 instrument. […] If necessary, minor adjustments were made to the pH of the peptide solution. […] One injection of 0.2 μL, followed by 20 injections of 2 μL, was made with a 180 s spacing to allow the baseline to return after each injection. All experiments were performed in triplicate. The data were analyzed with a one-site (three-parameter) curve fitting conducted using the MicroCal-supported ITC module within Origin version 7.

[2] = biological target: T1, NCS-1 (Homo sapiens, UniProt P62166); assay: Isothermal titration calorimetry, NCS-1 titrated into PQIQ peptide; assay type: binding; conditions: 100 μM PQIQ in cell, 1 mM NCS-1 in syringe, 25 °C, pH 7.5; complex aggregates
T1 construct: His tag (TEV-cleavable) (N, cleaved yes); made in house; host or cells: Escherichia coli BL21(DE3)
T1 sequence (P62166 whole entry, species assumed): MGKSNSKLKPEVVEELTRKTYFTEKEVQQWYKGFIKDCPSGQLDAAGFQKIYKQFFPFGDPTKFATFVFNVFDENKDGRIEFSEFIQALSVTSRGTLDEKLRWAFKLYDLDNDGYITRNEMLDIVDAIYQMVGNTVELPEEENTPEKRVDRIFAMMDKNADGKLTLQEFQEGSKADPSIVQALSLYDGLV
Experimental: The peptide used corresponds to residues 1903–1929 of the human P/Q receptor. The synthetic P/Q peptide, […] (hereafter termed the PQIQ peptide), was purchased from GenicBio. The peptide was delivered >95% pure.
Expression was induced overnight at 18 °C; cells were harvested, resuspended into lysis buffer [50 mM Tris-HCl (pH 7.5), 200 mM NaCl, 5 mM CaCl2, and Complete EDTA Free Protease Inhibitor (Roche Applied Science)], lysed, centrifuged, filtered, and loaded onto the Hiprep 16/10 Phenyl FF High Sub (GE Healthcare) column that was pre-equilibrated with buffer A [50 mM Tris-HCl (pH 7.5), 200 mM NaCl, and 5 mM CaCl2]. The column was extensively washed with buffer A and NCS-1 eluted using Milli-Q water. […] The purity of the sample was assessed by sodium dodecyl sulfate–polyacrylamide gel electrophoresis (SDS–PAGE) and deemed to be >95% pure. The eluted peak was concentrated and stored at −80 °C.
as §1

With “TVGKIYAAMMIMEYYRQSKAKKLQAMR [PQIQ peptide]” the solubility [1] was “limitations in PQIQ peptide solubility” and the equilibrium binding constant [2] was “not possible to obtain reliable equilibrium binding constants”.
